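GI50 marks 50% less growth. TGI denotes the concentration required for complete inhibition of growth.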
Key:
Test in all cases: NCI tumour cell line growth inhibition, 384-well format
[1] = test system: RXF 393 renal
[2] = test system: OVCAR-8 ovarian
[3] = test system: MDA-MB-468 breast
[4] = test system: HOP-92 NSCLC
[5] = test system: SK-OV-3 ovarian
[6] = test system: HCC-2998 colon
[7] = test system: HT29 colon
[8] = test system: NCI-H460 NSCLC
[9] = test system: SNB-75 CNS
[10] = test system: LOX IMVI melanoma
[11] = test system: HCT-15 colon
[12] = test system: MDA-MB-231 breast
[13] = test system: MALME-3M melanoma
[14] = test system: UACC-62 melanoma
[15] = test system: CAKI-1 renal
[16] = test system: SF-268 CNS
[17] = test system: SNB-19 CNS
[18] = test system: NCI-H322M lung
[19] = test system: EKVX NSCLC
[20] = test system: OVCAR-4 ovarian
[21] = test system: HOP-62 NSCLC
[22] = test system: PC-3 prostate
[23] = test system: A549 NSCLC
[24] = test system: IGROV1 ovarian
[25] = test system: MCF7 breast
[26] = test system: MDA-MB-435 melanoma
[27] = test system: NCI-H23 lung
[28] = test system: UACC-257 melanoma
[29] = test system: TK-10 renal
[30] = test system: SK-MEL-28 melanoma
[31] = test system: OVCAR-5 ovarian
[32] = test system: BT-549 breast
[33] = test system: KM12 colon
[34] = test system: SK-MEL-5 melanoma
[35] = test system: NCI-H226 lung
[36] = test system: OVCAR-3 ovarian
[37] = test system: T-47D breast
[38] = test system: U251 glioblastoma
[39] = test system: COLO 205 colon
[40] = test system: A498 renal
[41] = test system: HCT-116 colon
[42] = test system: M14 melanoma
[43] = test system: DU-145 prostate
[44] = test system: SF-539 CNS
[45] = test system: HS 578T breast
[46] = test system: SR leukemia
[47] = test system: HL-60(TB) leukemia
[48] = test system: MOLT-4 leukemia
[49] = test system: NCI-H522 lung
[50] = test system: SN12C renal
[51] = test system: SF-295 CNS
[52] = test system: NCI/ADR-RES ovarian
[53] = test system: ACHN renal

O=C(NO)c1cnc(N2CCN(S(=O)(=O)c3ccc4ccccc4c3)CC2)nc1
GI50 [1]: 121 nM | TGI [1]: 263 nM | GI50 [2]: 19.2 nM | TGI [2]: 140 nM | GI50 [3]: 68.4 nM | TGI [3]: 384 nM | GI50 [4]: 102 nM | TGI [4]: 310 nM | GI50 [5]: 85.4 nM | TGI [5]: 237 nM | GI50 [6]: 52.5 nM | TGI [6]: 188 nM | GI50 [7]: 61.1 nM | TGI [7]: 197 nM | GI50 [8]: 30.8 nM | TGI [8]: 138 nM | GI50 [9]: 166 nM | TGI [9]: 1260 nM | GI50 [10]: 47.2 nM | TGI [10]: 157 nM | GI50 [11]: 98.2 nM | TGI [11]: 272 nM | GI50 [12]: 129 nM | TGI [12]: 343 nM | GI50 [13]: 25.8 nM | TGI [13]: 124 nM | GI50 [14]: 41.7 nM | TGI [14]: 154 nM | GI50 [15]: 94.7 nM | TGI [15]: 222 nM | GI50 [16]: 102 nM | TGI [16]: 246 nM | GI50 [17]: 154 nM | TGI [17]: 299 nM | GI50 [18]: 79.2 nM | TGI [18]: 261 nM | GI50 [19]: 200 nM | TGI [19]: 911 nM | GI50 [20]: 140 nM | TGI [20]: 327 nM | GI50 [21]: 69 nM | TGI [21]: 263 nM | GI50 [22]: 56.7 nM | TGI [22]: 239 nM | GI50 [23]: 69.2 nM | TGI [23]: 229 nM | GI50 [24]: 65.8 nM | TGI [24]: 195 nM | GI50 [25]: 44.6 nM | TGI [25]: 205 nM | GI50 [26]: 125 nM | TGI [26]: 283 nM | GI50 [27]: 93.4 nM | TGI [27]: 334 nM | GI50 [28]: 23.8 nM | TGI [28]: 85.3 nM | GI50 [29]: 64 nM | TGI [29]: 229 nM | GI50 [30]: 39.6 nM | TGI [30]: 146 nM | GI50 [31]: 37 nM | TGI [31]: 137 nM | GI50 [32]: 128 nM | TGI [32]: 319 nM | GI50 [33]: 113 nM | TGI [33]: 467 nM | GI50 [34]: 29.8 nM | TGI [34]: 61.2 nM | GI50 [35]: 136 nM | TGI [35]: 288 nM | GI50 [36]: 89.6 nM | TGI [36]: 216 nM | GI50 [37]: 38.9 nM | TGI [37]: 168 nM | GI50 [38]: 50.4 nM | TGI [38]: 170 nM | GI50 [39]: 129 nM | TGI [39]: 263 nM | GI50 [40]: 69.7 nM | TGI [40]: 205 nM | GI50 [41]: 32 nM | TGI [41]: 120 nM | GI50 [42]: 49.9 nM | TGI [42]: 171 nM | GI50 [43]: 29.4 nM | TGI [43]: 95 nM | GI50 [44]: 82.4 nM | TGI [44]: 409 nM | GI50 [45]: 86 nM | TGI [45]: 219 nM | GI50 [46]: 13.5 nM | TGI [46]: 42.4 nM | GI50 [47]: 15 nM | TGI [47]: 28.7 nM | GI50 [48]: 18.1 nM | TGI [48]: 32.4 nM | GI50 [49]: 40.7 nM | TGI [49]: 163 nM | GI50 [50]: 109 nM | TGI [50]: 233 nM | GI50 [51]: 119 nM | TGI [51]: 249 nM | GI50 [52]: 15.5 nM | TGI [52]: 42.3 nM | GI50 [53]: 139 nM | TGI [53]: 294 nM
